Results on 25 compounds are retold here after ChEMBL document CHEMBL1765084, “Pyrimidine-2,4,6-trione derivatives and their inhibition of mutant SOD1-dependent protein aggregation. Toward a treatment for amyotrophic lateral sclerosis” (J Med Chem, 2011).

A word on the pEC50: it is the negative decadic logarithm of the EC50, by convention in mol/L. Broadly, the inhibition is the relative decrease from the control value, in per cent. Read a low inhibition as a weak effect. The term pIC50 denotes −log10 of the IC50, conventionally taken in molar units. A word on the Cmax: it is the peak of the concentration-time curve. By Vdss is commonly meant a proportionality between amount in the body and measured concentration, not a real space. A high value points to wide distribution into tissue. In general, Tmax refers to the time at which the peak concentration occurs. A word on the Papp: it is a coefficient for how fast a substance crosses the barrier.

pEC50, pIC50: −log10 of the molar value. The source made the active and inactive calls. No cut-off for these calls is given here.

The test system of series [1] is PC-12. Description: Cytoprotection against SOD1 G93A mutant induced cytotoxicity in rat PC12 cells assessed as reduction of protein aggregates by fluorescent assay. It counts as functional, cell-based.
The nature of series [2]: Inhibition of sodium channel site 2 at 10 uM by radioligand binding assay.
The target of series [3] is T1, Estrogen receptor (Homo sapiens) (UniProt P03372).
T1 sequence (whole entry): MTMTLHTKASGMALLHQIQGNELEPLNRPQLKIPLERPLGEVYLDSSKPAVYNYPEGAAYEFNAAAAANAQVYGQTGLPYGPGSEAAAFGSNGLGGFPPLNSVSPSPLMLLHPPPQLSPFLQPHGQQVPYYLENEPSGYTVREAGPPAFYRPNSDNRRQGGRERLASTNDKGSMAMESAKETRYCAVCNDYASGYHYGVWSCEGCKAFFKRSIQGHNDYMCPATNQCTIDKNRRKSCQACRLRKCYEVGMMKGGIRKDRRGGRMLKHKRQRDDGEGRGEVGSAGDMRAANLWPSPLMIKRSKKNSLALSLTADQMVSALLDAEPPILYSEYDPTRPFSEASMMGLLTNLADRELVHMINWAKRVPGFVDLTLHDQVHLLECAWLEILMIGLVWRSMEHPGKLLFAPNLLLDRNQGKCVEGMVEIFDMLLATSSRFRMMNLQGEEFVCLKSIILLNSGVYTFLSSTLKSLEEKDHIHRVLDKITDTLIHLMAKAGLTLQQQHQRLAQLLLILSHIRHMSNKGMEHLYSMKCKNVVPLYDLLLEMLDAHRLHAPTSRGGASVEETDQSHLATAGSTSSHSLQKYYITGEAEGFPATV
The experiment in a line: Inhibition of ER alpha receptor at 10 uM by radioligand binding assay.

For series [4], the system named is Rattus norvegicus. Description: AUC/dose in Sprague-Dawley rat at 1 mg/kg, po. On the set-up: dose 1 mg/kg, route oral. The settings on record: in vivo. It counts as ADME, organism-based, Plasma.
The target of series [5] is T2, Cytochrome P450 1A2 (Homo sapiens, UniProt P05177).
T2 sequence (P05177 whole entry): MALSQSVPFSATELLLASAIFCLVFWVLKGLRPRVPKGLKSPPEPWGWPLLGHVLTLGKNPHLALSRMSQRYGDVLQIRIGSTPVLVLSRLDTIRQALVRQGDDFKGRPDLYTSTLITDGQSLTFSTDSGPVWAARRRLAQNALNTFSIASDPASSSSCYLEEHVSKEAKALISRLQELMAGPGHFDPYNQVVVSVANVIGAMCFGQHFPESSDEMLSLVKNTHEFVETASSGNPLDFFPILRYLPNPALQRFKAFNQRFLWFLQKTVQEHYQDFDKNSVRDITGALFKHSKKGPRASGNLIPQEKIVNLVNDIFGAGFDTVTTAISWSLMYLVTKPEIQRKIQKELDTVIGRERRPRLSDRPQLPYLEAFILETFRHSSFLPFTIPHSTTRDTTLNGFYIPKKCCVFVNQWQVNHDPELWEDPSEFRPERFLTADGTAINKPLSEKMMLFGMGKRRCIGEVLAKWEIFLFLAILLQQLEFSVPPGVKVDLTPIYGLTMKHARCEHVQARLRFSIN
The experiment in a line: Inhibition of CYP1A2 in human liver microsomes. For orientation: Microsomes from liver hold many membrane-bound enzymes, among them those of drug oxidation.

The subject of series [6] is PC-12. The experiment in a line: Cytoprotection against SOD1 G93A mutant induced cytotoxicity in rat PC12 cells after 24 hrs by fluorescent assay. It counts as functional, cell-based.
The subject of series [7] is Liver microsomes. Description: Half life of the compound in human liver microsomes.
Series [8] has as its system Plasma. The experiment in a line: Half life in B6SJL mouse plasma by LC-MS/MS analysis.
Series [9] has as its system Rattus norvegicus. Description: Cmax in Sprague-Dawley rat at 1 mg/kg, po. It counts as ADME, organism-based. On the set-up: dose 1 mg/kg, route oral. The settings on record: in vivo.
For series [10], the system named is Rattus norvegicus. Description: Volume of distribution at steady state in Sprague-Dawley rat at 1 mg/kg, iv. It counts as ADME, organism-based. On the set-up: dose 1 mg/kg, route intravenous. The settings on record: in vivo.
Series [11] concerns the target hERG (KCNH2) (Homo sapiens, UniProt Q12809). Description: Inhibition of human ERG in cells at 10 uM by patch clamp assay relative to control. The settings on record: cells expressing human ERG. On the technique in general: In patch-clamp work, channel activity is measured electrically.
Series [12] concerns Rattus norvegicus. Description: Oral bioavailability in Sprague-Dawley rat at 1 mg/kg. Format: ADME, organism-based. Particulars: in vivo.
The test system of series [13] is Plasma. Description: Plasma protein binding in human at 2 uM. It counts as ADME, cell-free.
In series [14] the test system is Liver. Description: Half life of the compound in B6SJL mouse liver microsome. The settings on record: microsomes.
The subject of series [15] is Rattus norvegicus. The experiment in a line: AUC/dose in Sprague-Dawley rat at 1 mg/kg, iv. Format: ADME, organism-based, Plasma. On the set-up: dose 1 mg/kg, route intravenous. Particulars: in vivo.
Series [16] concerns the target D(3) dopamine receptor (Homo sapiens) (UniProt P35462). Description: Inhibition of dopamine D3 receptor at 10 uM by radioligand binding assay.
The test system of series [17] is Rattus norvegicus. Description: AUC last in Sprague-Dawley rat at 1 mg/kg, iv. It counts as ADME, organism-based, Plasma. Also on record: time 0 - last, dose 1 mg/kg, route intravenous. Particulars: in vivo.
Series [18] concerns the target Cytochrome P450 2C9 (Homo sapiens, UniProt P11712). The experiment in a line: Inhibition of CYP2C9 in human liver microsomes.
Series [19] relates to Rattus norvegicus. The experiment in a line: Half life in Sprague-Dawley rat at 1 mg/kg, po. It counts as ADME, organism-based. Also on record: dose 1 mg/kg, route oral. The settings on record: in vivo.
The target of series [20] is Cytochrome P450 3A4 (Homo sapiens, UniProt P08684). The experiment in a line: Inhibition of CYP3A4 in human liver microsomes. Format: ADME, Microsome.
Sequence of Cytochrome P450 3A4 (P08684 whole entry): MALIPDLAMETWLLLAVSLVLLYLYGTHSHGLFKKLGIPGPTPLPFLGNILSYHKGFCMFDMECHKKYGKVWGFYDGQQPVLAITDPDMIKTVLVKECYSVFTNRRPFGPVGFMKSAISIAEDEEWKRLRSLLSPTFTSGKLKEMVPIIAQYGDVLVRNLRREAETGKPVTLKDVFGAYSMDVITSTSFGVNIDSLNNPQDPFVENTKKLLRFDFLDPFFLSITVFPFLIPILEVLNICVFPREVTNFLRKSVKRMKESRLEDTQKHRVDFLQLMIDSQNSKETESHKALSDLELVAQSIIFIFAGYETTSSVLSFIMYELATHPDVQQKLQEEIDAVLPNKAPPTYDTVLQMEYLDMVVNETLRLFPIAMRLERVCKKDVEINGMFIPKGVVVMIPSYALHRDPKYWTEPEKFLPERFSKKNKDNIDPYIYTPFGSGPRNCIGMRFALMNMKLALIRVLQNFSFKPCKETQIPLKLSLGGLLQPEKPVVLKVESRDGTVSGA
The test system of series [21] is Rattus norvegicus. The experiment in a line: Tmax in Sprague-Dawley rat at 1 mg/kg, po. It counts as ADME, organism-based. On the set-up: dose 1 mg/kg, route oral. The settings on record: in vivo.
Series [22] is described as follows: Inhibition of GABA transporter at 10 uM by radioligand binding assay.
Series [23] relates to PC-12. Description: Cytoprotection against SOD1 G93A mutant induced cytotoxicity in rat PC12 cells assessed as reduction of protein aggregates at 10 uM by fluorescent assay in presence of proteasome inhibitor MG132. It counts as functional, cell-based.
Series [24] deals with Plasma. The experiment in a line: Plasma protein binding in rat at 2 uM. It counts as ADME, cell-free.
The target in series [25] is Cytochrome P450 2C19 (Homo sapiens, UniProt P33261). Description: Inhibition of CYP2C19 in human liver microsomes.
Sequence of Cytochrome P450 2C19 (P33261 whole entry): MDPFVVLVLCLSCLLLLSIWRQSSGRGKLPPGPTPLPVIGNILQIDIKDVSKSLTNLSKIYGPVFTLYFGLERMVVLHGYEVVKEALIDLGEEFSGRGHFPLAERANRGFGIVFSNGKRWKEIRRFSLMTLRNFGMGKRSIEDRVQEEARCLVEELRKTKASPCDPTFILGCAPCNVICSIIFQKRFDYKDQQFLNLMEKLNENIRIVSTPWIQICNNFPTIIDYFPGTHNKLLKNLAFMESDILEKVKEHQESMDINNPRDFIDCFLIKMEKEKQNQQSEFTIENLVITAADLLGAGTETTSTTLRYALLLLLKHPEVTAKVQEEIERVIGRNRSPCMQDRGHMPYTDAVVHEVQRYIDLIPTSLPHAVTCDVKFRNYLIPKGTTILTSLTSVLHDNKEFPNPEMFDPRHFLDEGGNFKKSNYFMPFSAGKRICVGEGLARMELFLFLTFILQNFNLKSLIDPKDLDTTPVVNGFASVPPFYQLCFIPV
Series [26] concerns PC-12. Description: Cytoprotection against SOD1 G93A mutant induced cytotoxicity in rat PC12 cells assessed as reduction of protein aggregates at 1 uM by fluorescent assay. It counts as functional, cell-based.
Series [27] has as its system Rattus norvegicus. Description: Half life in Sprague-Dawley rat at 1 mg/kg, iv. Format: ADME, organism-based. Also on record: dose 1 mg/kg, route intravenous. The settings on record: in vivo.
Series [28] relates to Caco-2. Description: Apparent Permeability across basolateral to apical side in human Caco2 cells at 50 uM after 2 hrs. The settings on record: caco-2, 2 h. (In general: Caco-2 monolayers are a common model of the intestinal barrier.)
Series [29] addresses Cytochrome P450 2D6 (Homo sapiens, UniProt P10635). Description: Inhibition of CYP2D6 in human liver microsomes. Format: ADME, Microsome.

Sequence of Cytochrome P450 2C9 (P11712 whole entry): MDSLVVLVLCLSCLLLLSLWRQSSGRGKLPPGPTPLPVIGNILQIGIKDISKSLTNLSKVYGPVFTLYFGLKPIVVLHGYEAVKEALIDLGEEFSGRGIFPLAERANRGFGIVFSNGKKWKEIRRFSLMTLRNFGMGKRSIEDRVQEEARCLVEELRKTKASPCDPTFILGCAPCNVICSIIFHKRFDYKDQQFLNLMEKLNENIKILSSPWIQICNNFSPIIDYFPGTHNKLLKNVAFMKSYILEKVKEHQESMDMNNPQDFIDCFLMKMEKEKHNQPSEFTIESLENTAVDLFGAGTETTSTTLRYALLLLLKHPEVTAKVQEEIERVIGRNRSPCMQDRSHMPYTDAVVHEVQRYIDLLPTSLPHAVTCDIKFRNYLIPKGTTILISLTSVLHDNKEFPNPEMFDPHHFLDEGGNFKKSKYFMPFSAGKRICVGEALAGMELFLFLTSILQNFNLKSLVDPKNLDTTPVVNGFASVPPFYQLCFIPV
Sequence of hERG (KCNH2) (Q12809 whole entry): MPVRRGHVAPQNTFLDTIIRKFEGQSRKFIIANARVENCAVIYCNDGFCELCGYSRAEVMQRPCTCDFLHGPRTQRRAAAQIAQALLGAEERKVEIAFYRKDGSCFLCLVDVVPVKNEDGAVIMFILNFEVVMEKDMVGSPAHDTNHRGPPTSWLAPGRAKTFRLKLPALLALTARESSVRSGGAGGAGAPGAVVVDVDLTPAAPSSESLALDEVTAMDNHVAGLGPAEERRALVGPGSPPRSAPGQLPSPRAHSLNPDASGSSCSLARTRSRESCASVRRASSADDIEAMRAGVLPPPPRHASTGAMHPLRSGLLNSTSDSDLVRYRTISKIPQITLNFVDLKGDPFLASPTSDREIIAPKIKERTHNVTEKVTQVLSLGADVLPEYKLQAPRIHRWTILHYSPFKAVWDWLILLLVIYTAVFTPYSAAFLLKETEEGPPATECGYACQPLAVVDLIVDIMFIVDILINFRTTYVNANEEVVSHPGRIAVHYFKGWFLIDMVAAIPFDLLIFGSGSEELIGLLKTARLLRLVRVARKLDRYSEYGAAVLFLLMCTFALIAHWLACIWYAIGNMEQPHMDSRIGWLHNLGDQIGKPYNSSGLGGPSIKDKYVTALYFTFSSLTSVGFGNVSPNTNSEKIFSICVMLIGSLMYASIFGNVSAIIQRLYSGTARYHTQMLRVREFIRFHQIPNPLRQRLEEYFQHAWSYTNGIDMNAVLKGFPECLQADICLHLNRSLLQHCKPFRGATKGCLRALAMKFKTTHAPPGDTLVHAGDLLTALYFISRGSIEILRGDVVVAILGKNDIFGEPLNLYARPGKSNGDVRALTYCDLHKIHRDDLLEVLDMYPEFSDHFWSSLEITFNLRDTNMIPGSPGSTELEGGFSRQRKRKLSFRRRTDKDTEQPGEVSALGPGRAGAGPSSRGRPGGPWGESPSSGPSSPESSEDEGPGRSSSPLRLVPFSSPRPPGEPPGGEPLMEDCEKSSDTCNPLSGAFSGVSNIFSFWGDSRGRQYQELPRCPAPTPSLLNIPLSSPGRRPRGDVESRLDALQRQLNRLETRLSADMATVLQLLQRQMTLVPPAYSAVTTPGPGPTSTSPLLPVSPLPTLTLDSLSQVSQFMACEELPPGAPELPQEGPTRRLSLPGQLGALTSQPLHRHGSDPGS
Sequence of D(3) dopamine receptor (Homo sapiens) (P35462 whole entry): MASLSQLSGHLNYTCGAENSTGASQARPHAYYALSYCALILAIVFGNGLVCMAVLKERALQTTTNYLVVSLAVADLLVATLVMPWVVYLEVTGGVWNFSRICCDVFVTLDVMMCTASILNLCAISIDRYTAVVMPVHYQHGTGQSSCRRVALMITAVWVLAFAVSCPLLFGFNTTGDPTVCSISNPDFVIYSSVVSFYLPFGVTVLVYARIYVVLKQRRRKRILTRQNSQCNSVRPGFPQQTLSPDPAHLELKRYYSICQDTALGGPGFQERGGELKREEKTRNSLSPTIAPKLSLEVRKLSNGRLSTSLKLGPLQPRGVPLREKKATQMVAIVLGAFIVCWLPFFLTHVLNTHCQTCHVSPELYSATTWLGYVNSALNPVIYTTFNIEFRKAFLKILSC
Sequence of Cytochrome P450 2D6 (P10635 whole entry): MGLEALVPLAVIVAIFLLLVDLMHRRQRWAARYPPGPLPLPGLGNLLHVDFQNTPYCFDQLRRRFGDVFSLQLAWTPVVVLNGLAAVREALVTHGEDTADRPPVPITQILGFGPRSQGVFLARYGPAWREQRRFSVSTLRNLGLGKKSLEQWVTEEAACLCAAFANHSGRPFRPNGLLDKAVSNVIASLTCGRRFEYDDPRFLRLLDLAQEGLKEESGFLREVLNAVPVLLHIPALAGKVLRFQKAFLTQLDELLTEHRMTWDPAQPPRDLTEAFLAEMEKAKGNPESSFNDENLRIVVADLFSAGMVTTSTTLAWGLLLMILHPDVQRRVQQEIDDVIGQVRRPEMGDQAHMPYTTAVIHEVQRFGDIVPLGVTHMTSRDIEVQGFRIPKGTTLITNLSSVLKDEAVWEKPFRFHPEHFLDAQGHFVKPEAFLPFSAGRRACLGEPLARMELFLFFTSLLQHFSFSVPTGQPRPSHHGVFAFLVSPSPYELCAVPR

In the case of `COc1ccc(CCN2C(=O)CC(=O)N(CCc3ccc(OC)cc3)C2=O)cc1`, in series [1], the pEC50 was 5.47.

For `O=C1CC(=O)N(C2CCCCC2)C(=O)N1`, the pEC50 in series [1] is less than 4.49.

As to `O=C1CC(=O)N(CCc2ccccc2)C(=O)N1CCc1ccccc1`, the inhibition in [2] is 21%; in series [3] it was 20%; in [16], 41%; in series [22], 19%. Besides, the values for the AUC/dose in series [4] and in series [15] were 124 ng·h/mL and 126 ng·h/mL, respectively. The pIC50 in [5], in series [18], in [20], in series [25] and in series [29] was less than 4.30 in each case. The Activity result in series [6] and in series [26] was “Dose-dependent effect” throughout. For the same compound, the t1/2 in [7] came out at 61 min; in series [8] it was 60.5 min; in series [14], 39 min; in series [19], 1.4 h; in series [27], 57 min. In series [9], this compound yielded a Cmax of 55 ng/mL. The compound also returned a Vdss in [10] of 9 L/kg. This compound also yielded an inhibition at 10 µM in series [11] of 4.9%. The same compound registered a F in series [12] of 98%. Moreover, the values for the PPB in series [13] and in series [24] were 90% and 95%, respectively. For the same compound, in series [1], the pEC50 was 5.77. The AUClast in series [17] turned out to be 121 ng·h/mL. In addition, in [21], the Tmax came to 45 min. Besides, the outcome in series [23] was Active. Besides, in series [28], the Papp is given as 26 ×10⁻⁶ cm/s.

Regarding `CC1C(=O)N(CCc2ccccc2)C(=O)N(CCc2ccccc2)C1=O`, the pEC50 in series [1] was less than 4.49.

Turning to `O=C1CC(=O)N(CCc2ccc(F)cc2)C(=O)N1CCCCc1ccccc1`, in series [1], the pEC50 is 5.45.

Consider `CC(C)OCCN1C(=O)CC(=O)N(CCc2ccc(F)cc2)C1=O`, for which, in series [1], the pEC50 was 5.53.

With `O=C1CCC(=O)N(CCc2ccccc2)C(=O)N1CCc1ccccc1`, the pEC50 in series [1] was less than 4.49.

Turning to `O=C1C(=Cc2ccc[nH]2)C(=O)N(CCc2ccccc2)C(=O)N1CCc1ccccc1`, in series [1], the pEC50 is 5.45.

For the compound `O=C1CC(=O)N(CCc2ccc(Cl)cc2Cl)C(=O)N1CCc1ccc(Cl)cc1Cl`, the pEC50 in series [1] was 5.73.

Turning to `CCCCCCCCN1C(=O)CC(=O)N(CCc2ccccc2)C1=O`, in [1], the pEC50 was 6.15.

`CCCN1C(=O)CC(=O)N(CCC)C1=O`: the pEC50 in series [1] was 5.11.

For `CCCCN1C(=O)CC(=O)NC1=O`, the pEC50 in series [1] was less than 4.49.

For `Cc1cc(C=C2C(=O)N(CCc3ccccc3)C(=O)N(CCc3ccccc3)C2=O)c(C)n1-c1ccccc1`, the pEC50 in series [1] was 6.06.

Regarding `O=C1NC(=O)N(C2CCCCC2)C1=O`, in series [1], the pEC50 is less than 4.49.

Regarding `COc1ccc(CCN2C(=O)CC(=O)N(CCc3ccc(OC)c(OC)c3)C2=O)cc1OC`, in series [1], the pEC50 was 4.94.

Regarding `O=C1CC(=O)N(CCc2ccc(F)cc2)C(=O)N1CCOc1ccccc1`, the pEC50 in [1] is 5.88.

Regarding `O=C1CC(=O)N(CCc2cccc(Cl)c2)C(=O)N1CCc1cccc(Cl)c1`, the pEC50 in series [1] was 5.53.

As for `O=C1CC(=O)N(Cc2ccccc2)C(=O)N1Cc1ccccc1`, the pEC50 in series [1] is 5.34.

In the case of `O=C1CC(=O)N(CCc2cccs2)C(=O)N1CCc1ccc(F)cc1`, the pEC50 in series [1] is 5.67.

Consider `O=C1CC(=O)N(C2CCCCC2)C(=O)N1C1CCCCC1`, for which the pEC50 in series [1] is 5.53.

On to `CCOCCN1C(=O)CC(=O)N(CCOCC)C1=O`, for which the pEC50 in series [1] was 5.11.

As for `O=C1C(=CC2CCCCC2)C(=O)N(CCc2ccccc2)C(=O)N1CCc1ccccc1`, in [1], the pEC50 is less than 4.49.

On to `CC1(C)C(=O)N(CCc2ccccc2)C(=O)N(CCc2ccccc2)C1=O`, for which the pEC50 in series [1] was less than 4.49.

Consider `O=C1C(=O)N(C2CCCCC2)C(=O)N1C1CCCCC1`, for which the pEC50 in series [1] is less than 4.49.

As for `O=C1C(=Cc2c(Cl)cccc2Cl)C(=O)N(CCc2ccccc2)C(=O)N1CCc1ccccc1`, the pEC50 in series [1] is 5.51.
